Patent publication US7435736B2, “Substituted 1-piperidin-4-yl-4-azetidin-3-yl-piperazine derivatives and their use as neurokinin antagonists” (Janssen Pharmaceutica, N.V., priority 2002, dated 2008)

Tests used:
[1] = system: dopamine release; details: frontal cortex vs striatum; cited from earlier work
[2] = system: acute emesis; details: administered together with dexamethasone and 5-HT3 antagonists; cited from earlier work
[3] = system: cisplatin-induced emesis; details: acute and delayed phase, animals; cited from earlier work
[4] = target: h-NK1 (Homo sapiens, UniProt P25103); test: Signal transduction (ST), intracellular Ca++ FLIPR, NK1 antagonistic activity; type: cell-based; details: read-out: pIC50 h-NK1 (converted)
h-NK1, sequence (P25103 whole entry): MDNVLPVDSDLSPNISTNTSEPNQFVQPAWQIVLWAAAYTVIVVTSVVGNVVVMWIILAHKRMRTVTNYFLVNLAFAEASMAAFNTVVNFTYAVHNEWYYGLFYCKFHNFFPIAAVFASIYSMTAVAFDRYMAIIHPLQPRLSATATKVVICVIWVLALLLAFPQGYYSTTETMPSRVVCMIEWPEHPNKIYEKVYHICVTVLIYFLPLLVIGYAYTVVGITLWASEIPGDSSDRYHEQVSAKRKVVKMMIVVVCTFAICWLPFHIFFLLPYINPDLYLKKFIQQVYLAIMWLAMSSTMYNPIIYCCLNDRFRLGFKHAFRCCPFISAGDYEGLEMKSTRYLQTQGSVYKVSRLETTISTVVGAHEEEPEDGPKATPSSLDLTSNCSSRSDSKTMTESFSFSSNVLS
Method: (§1) This test evaluates in vitro functional NK1, NK2 and NK3 antagonistic activity. For the measurements of intracellular Ca^++ concentrations the cells were grown on 96-well (black wall/transparent bottom) plates from Costar for 2 days until they reached confluence. The cells were loaded with 2 μM Fluo3 in DMEM containing 0.1% BSA and 2.5 mM probenecid for 1 h at 37° C. They were washed 3× with a Krebs buffer (140 mM NaCl, 1 mM MgCl2×6H2O, 5 mM KCl, 10 mM glucose, 5 mM HEPES; 1.25 mM CaCl2; pH 7.4) containing 2.5 mM probenecid and 0.1% BSA (Ca^++-buffer). The cells were preincubated with a concentration range of antagonists for 20 min at RT and Ca^++-signals after addition of the agonists were measured in a Fluorescence Image Plate Reader (FLIPR from Molecular Devices, Crawley, England). The peak of the Ca^++-transient was considered as the relevant signal and the mean values of corresponding wells were analysed as described below.
(§2) The sigmoidal dose response curves were analysed by computerised curve-fitting, using the GraphPad Program. The EC50-value of a compound is the effective dose showing 50% of maximal effect. For mean curves the response to the agonist with the highest potency was normalised to 100%. For antagonist responses the IC50-value was calculated using non-linear regression. […]

[5] = target: T1, h-NK3 (Homo sapiens, UniProt P29371); test: Signal transduction (ST), intracellular Ca++ FLIPR, NK3 antagonistic activity; type: cell-based; details: read-out: pIC50 h-NK3 (converted)
T1 sequence (P29371 1-465): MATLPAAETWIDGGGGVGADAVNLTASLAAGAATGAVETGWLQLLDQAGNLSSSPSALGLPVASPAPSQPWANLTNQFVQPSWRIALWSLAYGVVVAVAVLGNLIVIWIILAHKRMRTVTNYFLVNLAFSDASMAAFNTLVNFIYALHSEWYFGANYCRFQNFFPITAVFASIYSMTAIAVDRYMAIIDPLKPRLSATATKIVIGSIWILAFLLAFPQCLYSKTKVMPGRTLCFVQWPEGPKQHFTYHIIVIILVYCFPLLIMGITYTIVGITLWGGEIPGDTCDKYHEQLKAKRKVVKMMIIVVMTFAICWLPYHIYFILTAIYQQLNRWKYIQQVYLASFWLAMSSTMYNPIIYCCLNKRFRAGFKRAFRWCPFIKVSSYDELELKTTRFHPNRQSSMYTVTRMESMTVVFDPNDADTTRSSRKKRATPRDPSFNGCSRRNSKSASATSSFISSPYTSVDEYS
Method: as §1, §2

[6] = target: T2, h-NK2 (Homo sapiens, UniProt P21452); test: Signal transduction (ST), intracellular Ca++ FLIPR, NK2 antagonistic activity; type: cell-based; details: read-out: pIC50 h-NK2 (converted)
T2 sequence (P21452 1-398): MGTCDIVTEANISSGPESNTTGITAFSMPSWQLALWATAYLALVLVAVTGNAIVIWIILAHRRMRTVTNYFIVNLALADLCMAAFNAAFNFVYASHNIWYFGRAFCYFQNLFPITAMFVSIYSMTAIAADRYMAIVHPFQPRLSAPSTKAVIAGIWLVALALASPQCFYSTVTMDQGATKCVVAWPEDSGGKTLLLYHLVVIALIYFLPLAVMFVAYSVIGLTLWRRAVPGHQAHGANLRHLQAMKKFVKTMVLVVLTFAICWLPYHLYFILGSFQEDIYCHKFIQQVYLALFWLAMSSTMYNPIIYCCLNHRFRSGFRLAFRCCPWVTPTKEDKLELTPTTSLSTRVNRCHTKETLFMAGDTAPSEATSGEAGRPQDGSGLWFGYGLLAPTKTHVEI
Method: as §1, §2

[7] = system: NK1 agonist-induced vocalisation response; details: guinea-pigs; cited from earlier work
[8] = system: schizophrenic patients; details: without affecting negative symptoms; cited from earlier work
[9] = system: major depression; details: data not conclusive due to high placebo response rate; cited from earlier work
[10] = system: chemotherapy- and radiation-induced sickness in cancer patients; details: cited from earlier work; for reduction of the development of delayed emesis: >24 h; for control of the acute emetic phase: first 24 h, either or not associated with dexamethasone

Row | Compound | IC50 [4] [nM] | IC50 [5] [nM] | IC50 [6] [nM] | also measured
1 | COc1ccc(-n2nnnc2C(F)(F)F)cc1CN[C@H]1CCCN[C@H]1c1ccccc1 [(S)-GR205,171] |  |  |  | dopamine release [1]: enhance dopamine release in the frontal cortex but not in the striatum
2 | COc1ccc(C(C)C)cc1CN[C@H]1C2CCN(CC2)[C@H]1C(c1ccccc1)c1ccccc1 [CJ-11,974, Ezlopitant] |  |  |  | prevention of acute emesis [2]: additional effects
3 | COc1ccccc1CN[C@H]1CCCN[C@H]1c1ccccc1 [CP-99,994] |  |  |  | inhibition of cisplatin-induced emesis [3]: inhibit not only the acute but also the delayed phase
4 | O=C(c1cc(C(F)(F)F)cc(C(F)(F)F)c1)N1CCC(N2CCN(C3CNC3)CC2)CC1Cc1ccccc1 (stereo not drawn) [Compound 2] | 123 |  |  | 
5 | CC(C)(C)OC(=O)NC(C)(C)C(=O)N1CC(N2CCN([C@H]3CCN(C(=O)c4cc(C(F)(F)F)cc(C(F)(F)F)c4)[C@H](Cc4ccccc4)C3)CC2)C1 [Compound 13] | 33.9 | ≥ 10000 | ≥ 10000 | 
6 | CC(C)(C)OC(=O)N1CCC[C@@H]1C(=O)N1CC(N2CCN([C@H]3CCN(C(=O)c4cc(C(F)(F)F)cc(C(F)(F)F)c4)[C@H](Cc4ccccc4)C3)CC2)C1 [Compound 22] | 37.2 | 1820 | 5500 | 
7 | FC(F)(F)c1cc(CO[C@H]2CCCN[C@H]2c2ccccc2)cc(C(F)(F)F)c1 [L-733,060] |  |  |  | antagonism of NK1 agonist-induced vocalisation response [7]: antagonised
8 | CC(=O)N(C)C1(c2ccccc2)CCN(CCC[C@]2(c3ccc(Cl)c(Cl)c3)CCCN(C(=O)c3ccccc3)C2)CC1 [SR142801] |  |  |  | antipsychotic activity [8]: antipsychotic activity
9 | C[C@@H](O[C@H]1OCCN(Cc2n[nH]c(=O)[nH]2)[C@H]1c1ccc(F)cc1)c1cc(C(F)(F)F)cc(C(F)(F)F)c1 [aprepitant] |  |  |  | antidepressant effects [9]: antidepressant effects; prevention of acute emesis [2]: additional effects; inhibition of cisplatin-induced emesis [3]: inhibit not only the acute but also the delayed phase
10 | CNCCC(Oc1ccc(C(F)(F)F)cc1)c1ccccc1 (stereo not drawn) [fluoxetine] |  |  |  | antagonism of NK1 agonist-induced vocalisation response [7]: antagonised
11 | CN1C2CCCC1CC(NC(=O)c1nn(C)c3ccccc13)C2 (stereo not drawn) [granisetron] |  |  |  | reduction of the development of delayed emesis [10]: poor efficacy; control of the acute emetic phase [10]: effective
12 | CN(C)CCCN1c2ccccc2CCc2ccccc21 [imipramine] |  |  |  | antagonism of NK1 agonist-induced vocalisation response [7]: antagonised
13 | Cc1nccn1CC1CCc2c(c3ccccc3n2C)C1=O (stereo not drawn) [ondansetron] |  |  |  | reduction of the development of delayed emesis [10]: poor efficacy; control of the acute emetic phase [10]: effective

The next lines start with results.

Row | IC50 [4] [nM] | IC50 [5] [nM] | IC50 [6] [nM] | Compound | also measured
14 | 19.5 |  |  | O=C(c1ccccc1)N1CC(N2CCN(C3CCN(C(=O)c4cc(C(F)(F)F)cc(C(F)(F)F)c4)C(Cc4ccccc4)C3)CC2)C1 (stereo not drawn) [Compound 3] | 
15 | 45.7 |  |  | N#Cc1cccc(C(=O)N2CC(N3CCN([C@H]4CCN(C(=O)c5cc(C(F)(F)F)cc(C(F)(F)F)c5)[C@H](Cc5ccccc5)C4)CC3)C2)c1 [Compound 4] | 
16 | 102 |  |  | O=C(c1ccc(F)c(F)c1)N1CC(N2CCN([C@H]3CCN(C(=O)c4cc(C(F)(F)F)cc(C(F)(F)F)c4)[C@H](Cc4ccccc4)C3)CC2)C1 [Compound 5] | 
17 | 49 |  |  | O=C(c1cccnc1)N1CC(N2CCN([C@H]3CCN(C(=O)c4cc(C(F)(F)F)cc(C(F)(F)F)c4)[C@H](Cc4ccccc4)C3)CC2)C1 [Compound 6] | 
18 | 72.4 | 3470 |  | Cc1cc(C(=O)N2CC(N3CCN([C@H]4CCN(C(=O)c5cc(C(F)(F)F)cc(C(F)(F)F)c5)[C@H](Cc5ccccc5)C4)CC3)C2)n(C)n1 [Compound 7] | 
19 | 204 |  |  | O=C(c1ccsc1)N1CC(N2CCN(C3CCN(C(=O)c4cc(C(F)(F)F)cc(C(F)(F)F)c4)C(Cc4ccccc4)C3)CC2)C1 (stereo not drawn) [Compound 8] | 
20 | 55 |  |  | O=C(c1ccoc1)N1CC(N2CCN([C@H]3CCN(C(=O)c4cc(C(F)(F)F)cc(C(F)(F)F)c4)[C@H](Cc4ccccc4)C3)CC2)C1 [Compound 9] | 
21 | 63.1 |  |  | O=C(C1CC1)N1CC(N2CCN([C@H]3CCN(C(=O)c4cc(C(F)(F)F)cc(C(F)(F)F)c4)[C@H](Cc4ccccc4)C3)CC2)C1 [Compound 10] | 
22 | 10.5 | ≥ 10000 | ≥ 10000 | O=C(C1CCOC1)N1CC(N2CCN(C3CCN(C(=O)c4cc(C(F)(F)F)cc(C(F)(F)F)c4)C(Cc4ccccc4)C3)CC2)C1 (stereo not drawn) [Compound 11] | 
23 | 43.7 | ≥ 10000 | ≥ 10000 | O=C([C@H]1CCOC1)N1CC(N2CCN([C@H]3CCN(C(=O)c4cc(C(F)(F)F)cc(C(F)(F)F)c4)[C@H](Cc4ccccc4)C3)CC2)C1 [Compound 12] | 
24 | 22.9 | 631 | 3980 | CC(C(=O)N1CC(N2CCN([C@H]3CCN(C(=O)c4cc(C(F)(F)F)cc(C(F)(F)F)c4)[C@H](Cc4ccccc4)C3)CC2)C1)c1ccccc1 (stereo partly drawn) [Compound 14] | 
25 | 32.4 | 1230 | 5500 | O=C(c1cc(C(F)(F)F)cc(C(F)(F)F)c1)N1CCC(N2CCN(C3CN(S(=O)(=O)c4cccs4)C3)CC2)CC1Cc1ccccc1 (stereo not drawn) [Compound 15] | 
26 | 7.41 | 4900 | ≥ 10000 | Cc1nnsc1C(=O)N1CC(N2CCN([C@H]3CCN(C(=O)c4cc(C(F)(F)F)cc(C(F)(F)F)c4)[C@H](Cc4ccccc4)C3)CC2)C1 [Compound 16] | 
27 | 11 | 5500 | ≥ 10000 | CC(C)(C)C(=O)N1CC(N2CCN([C@H]3CCN(C(=O)c4cc(C(F)(F)F)cc(C(F)(F)F)c4)[C@H](Cc4ccccc4)C3)CC2)C1 [Compound 17] | 
28 | 10.5 | 4370 | ≥ 10000 | O=C(c1ccccc1Cl)N1CC(N2CCN([C@H]3CCN(C(=O)c4cc(C(F)(F)F)cc(C(F)(F)F)c4)[C@H](Cc4ccccc4)C3)CC2)C1 [Compound 18] | 
29 | 45.7 | ≥ 10000 | ≥ 10000 | O=C(c1cc(C(F)(F)F)cc(C(F)(F)F)c1)N1CCC(N2CCN(C3CN(c4cnccn4)C3)CC2)CC1Cc1ccccc1 (stereo not drawn) [Compound 19] | 
30 | 41.7 | 8130 | ≥ 10000 | O=C(c1cnccn1)N1CC(N2CCN([C@H]3CCN(C(=O)c4cc(C(F)(F)F)cc(C(F)(F)F)c4)[C@H](Cc4ccccc4)C3)CC2)C1 [Compound 20] | 
